# Assay results published in patent publication US6258845A (priority 1999, dated 2001).
# Entries after “also recorded” stand apart in the source; their conditions may differ. Where two headings read alike, the source gives them in different places.
# Experiments:
# [1] = system: colorectal adenomas/polyps; conditions: cited from earlier work
# [2] = system: AOM-treated rat model of colon carcinogenesis; assay: Colon carcinogenesis in the AOM-treated rat / rodent model; conditions: sulfoxide and sulfone forms
# [3] = system: AOM-treated rat model of colon carcinogenesis; conditions: in vivo; cited from earlier work
# [4] = sulindac 400 mg per day; cited from earlier work
# [5] = system: colorectal adenomas/polyps; assay: Sulindac effect on colorectal adenomas/polyps in patients; conditions: randomized phase IIb
# [6] = cited from earlier work
# [7] = cited from earlier work; remark: listed apart in the source
# [8] = system: COX (cyclooxygenase); conditions: cited from earlier work
# [9] = system: tumors harboring Ki-ras mutations in AOM-treated rats; conditions: cited from earlier work
# [10] = system: hearing; conditions: cited from earlier work
# [11] = system: platelet counts; conditions: continuous infusion for 12 days; cited from earlier work
# [12] = system: ODC and polyamine contents; assay: DFMO effect on colorectal and buccal mucosa ODC and polyamine contents; format: in vivo, human
# Source text: When the inventors started these studies, their hope was that the effects of polyamine syntheses inhibitors in easily accessible tissues, such as buccal mucosa in the oral cavity, would be representative of inhibitor effects in less accessible tissue of the gastrointestinal tract. To test this hypothesis, the inventors measured ODC activity and polyamine contents in buccal mucosa isolated from normal human volunteers. […] From these studies, the inventors concluded that the buccal mucosal was not a useful surrogate tissue in which to measure the effects of polyamine synthesis inhibitor on other GI tissues.
# [13] = system: ornithine decarboxylase (ODC); conditions: cited from earlier work
# [14] = system: Caco-2 parental cells; conditions: long-term survival, Caco-2 cells
# [15] = system: intracellular putrescine and spermidine; conditions: cited from earlier work
# [16] = system: polyamine levels; format: in vivo, human
# Source text: Based on this information a dose of 0.2 Gm/M^2 /day will be used for the current trial.
# [17] = system: Caco-2 parental cells; assay: cells; conditions: Homo sapiens, Caco-2, 24 h, read-out: cell survival
# [18] = system: Caco-2 parental cells, Ki-ras clone #60 and Ki-ras clone #66; assay: Viable cell number (trypan blue dye exclusion), growth of Caco-2 parental and Ki-ras transfected cells; format: cell-based, human; conditions: 5 mM DFMO continuously, short-term growth
# Protocol: Effect of sulindac sulfide and sulfone on the growth of Ki-ras transfected cells. […] Viable cell number was determined by trypan blue dye exclusion.
# Caco-2 cells were maintained in Modified Eagle Media (GIBCO, Grand Island, N.Y.) supplemented with 10% fetal bovine serum and a 1% penicillin (10,000 units/ml)-streptomycin (10,000 mg/ml) solution (GIBCO, Grand Island, N.Y.). Transfected Caco-2 cells resistant to neomycin were maintained in 400 μg/ml G418. Cells were maintained at 37° in the presence of 5% CO2 in air.
# All cells were passed into new medium every two to three days, just prior to confluence. Drug additions were performed at the time of cell seeding and in MEM for each cell line unless otherwise noted. […] The two metabolites of sulindac, sulindac sulfone and sulfide, were obtained from Cell Pathways, Inc. (Horsham Pa.).
# Caco-2 cells were removed from the monolayer by treatment with trypsin (1500 units/ml, Calbiochem, San Diego, Calif.)-EDTA (.7mM) and counted using a hemocytometer. A sample of the cell suspension was combined in a 1:1 volume ratio with trypan blue dye (GIBCO, Grand Island, N.Y.), and at least two independently prepared suspensions were counted on a hemocytometer, two counts each. For all cell types, viability was determined by the percentage of cells able to exclude the trypan blue dye.
# [19] = system: colorectal tissue polyamine contents
# Protocol: All biopsies were performed between 9:00 a.m. and noon to avoid possible effects of diurnal variation in laboratory endpoints.
# [20] = system: Caco-2 parental cells; assay: Induction of apoptosis (light microscopy) in Caco-2 parental cells; format: cell-based, human; conditions: 5 mM DFMO, with or without sulindac sulfone (so in the source); parental Caco-2
# Protocol: (§1) FIG. 3. […] Apoptosis was determined by light microscopy.
# (§2) FIG. 8. […] Cells were grown over a period of 6 days. Cells were harvested at various days (0, 2, 4 and 6 days), spun onto slides and stained. Apoptosis was determined by light microscopy. Percentage of apoptotic cells was calculated as the number of apoptotic cells out of the total cells counted times 100. At least 500 cells were counted for each sample.
# (§3) Cells were grown over a period of 6 days. Cells were harvested at various days (0, 2, 4 and 6 days), spun onto slides and stained. Apoptosis was determined by light microscopy. Percentage of apoptotic cells was calculated as the number of apoptotic cells out of the total cells counted times 100.
# [21] = system: tissue polyamine contents (Barrett's lesion, normal squamous esophagus, gastric tissue, small bowel); assay: DFMO in Barrett's esophagus patients, tissue polyamine contents; format: in vivo, human; conditions: 1.5 gm/m^2 per day, 12 weeks
# Source text: ODC activities and polyamine contents varied in each site analyzed. The rank orders were Barrett's>small bowel~normal esophagus>gastric tissue for ODC activities, and small bowel≥Barrett's~normal esophagus>gastric tissue for putrescine contents.
# [22] = system: Ki-ras clone #60; assay: Induction of apoptosis (light microscopy) in Ki-ras clone 60; format: cell-based, human; conditions: day 6, 5 mM DFMO, with or without sulindac sulfone (so in the source)
# Protocol: as §1, §2, §3
# [23] = system: Ki-ras clone #60 cells; assay: Clonogenic assay (colony-forming efficiency), Ki-ras clone 60; format: cell-based, human; conditions: Homo sapiens, Caco-2, 24 h; read-out: decrease in cell survival compared to untreated transfectants
# [24] = system: human cancer; conditions: cited from earlier work
# [25] = system: hearing; assay: DFMO effects on hearing / ototoxicity in patients; conditions: 0.25 g/m^2 /d
# [26] = system: MCA sarcoma; conditions: in vivo; cited from earlier work
# [27] = human, in vivo
# [28] = system: tumor putrescine levels; conditions: DFMO infusion, cited from earlier work
# [29] = system: carcinogenesis in rodent/animal models; conditions: in vivo; cited from earlier work
# [30] = system: Ki-ras clones 60 and 66; assay: cells; conditions: Homo sapiens
# [31] = listed as α-Difluoromethylornithine (DFMO)
structure (smiles),measurement,setting,value
"CC1=C(CC(=O)O)c2cc(F)ccc2/C1=C\c1ccc([S+](C)[O-])cc1 (stereo not drawn) [sulindac, (Z)-5-Fluoro-2-methyl-1-((4 (methylsulfinyl)phenyl)methylene) 1H-indene-3-acetic acid]",regression of adenomas in FAP patients,[1]; FAP patients,regression of adenomas
same,clinical regression of polyps,[1]; several studies,can cause clinical regression of polyps
same,effect on sporadic adenomas,[1]; sporadic adenomas,no such effect
same,inhibition of carcinogenesis in the AOM-treated rat,[2],"inhibit carcinogenesis in the AOM-treated rat, with similar potencies"
same,apoptosis in AOM-treated rodent model,[3],cause apoptosis
same,inhibition of colon carcinogenesis in AOM-treated rat model,[3],effectively inhibit colon carcinogenesis
same,analgesic and antiinflamatory effects,[4],"comparable to those achieved by aspirin (4 g per day), ibuprofin (1200 mg per day), indomethacin (125 mg per day), and phenylbutazone (400 to 600 mg per day)"
same,150 mg per day vs. twice per day,[5],comparable results
same,safety in phase IIb study,[5],safe
same,polyp regression and development of new polyps,[5]; 150 mg per day or twice per day,regression of extant polyps shown
same,time of peak plasma levels,[6]; fasting patients,about 2 hours
same,half-life,"[6]; human, in vivo, po",7 h
same,mean half-life,"[6]; human, in vivo, po",7.8 h
same,absorption of drug,[6]; oral administration,about 90%
same,borderline elevations in one or more liver function test,"[7]; human, in vivo",15 % of clinical trial patients
same,gastrointestinal toxicity / ulceration,"[7]; human, in vivo","serious gastrointestinal toxicity such as bleeding, ulceration, and perforation"
same,meaningful elevations in liver function test (3 times upper limit of normal),"[7]; human, in vivo",less than 1%
same,mild gastrointestinal effects,"[7]; human, in vivo",~20 % of patients
same,skin rash and pruritus,"[7]; human, in vivo",5 % of patients
same,gastrointestinal toxicity / ulceration,"[7]; human, in vivo, listed as Sulindac",G.I. ulceration that in general is dose-related; also recorded: can produce gastric irritation and bleeding
same,"granulocytosis, aplastic anemia, hemolytic anemia",[7]; rare adverse effects,less than 1%
same,gastrointestinal pain,[7]; therapeutic doses,10%
same,COX / prostaglandin synthesis inhibition,[8],inhibit cycloxygenase and prostaglandin synthesis
same,Ki-ras mutation / tumors harboring an activated Ki-ras,[9],reduces the number of tumors harboring an activated Ki-ras
"NCCCC(N)(C(=O)O)C(F)F (racemic) [DFMO, 2(Difluoromethyl)-DL-ornithine]",effects on hearing,[10]; 0.4gr/M^2 /day for up to one year,not observed
same,audiometric changes,[10]; about 6 months at 0.50 g/m^2 /d (total dose 90 gm),no audiometric changes
same,patients with hearing losses,[10]; cumulative doses above 250 g/m^2,up to 75 % of patients
same,patients with demonstrable hearing deficit,[10]; cumulative doses below 150 g/m^2,less than 10 % of the patients
same,"effects on hearing / hearing loss, reversibility",[10]; other clinical trials,"hearing loss, which was reversible after the drug treatment was discontinued; also recorded: totally reversible upon drug discontinuation; also recorded: effects on hearing at high doses of 4 gr/M^2 /day that resolve when it is discontinued"
same,platelet counts,[11],significantly reduces platelet counts compared with controls
same,buccal mucosal ODC and polyamine contents,[12]; buccal mucosa,unaffected
same,polyamine contents in colorectal tissue biopsies,[12]; colorectal tissue,reduced polyamine contents in colorectal tissue biopsies
same,inhibition of ODC,[13],"powerful inhibitor of ODC, both in vitro and in vivo"
same,inhibition of ODC,[13]; [31],"enzyme-activated, irreversible inhibitor of ornithine decarboxylase (ODC)"
same,effect of DFMO on toxicity of the sulindac metabolites,[14],did not increase the toxicity of the sulindac metabolites in long-term survival studies
same,uptake of exogenous putrescine,[15]; cells treated in vivo,significantly increase their uptake of exogenous putrescine
same,intracellular polyamine concentrations,[15],decrease in putrescine and spermidine concentrations
same,intracellular polyamine concentrations,[15]; [31],"depletion in the intracellular concentrations of putrescine and its derivative, spermidine"
same,lowest dose that may produce a persistent effect on polyamine levels,[16]; 12 months,0.10 Gm/M^2 /day
same,audiotoxicity,[16]; in vivo,no audiotoxicity was evident
same,patients coming off study,[16]; in vivo,came off study more frequently
same,side-effects after one year,[16]; in vivo,equivalent to placebo
same,viability at 5000 µM,[17],~100%
same,trypan blue dye exclusion,[18],exclusion of trypan blue dye in either the Ki-ras cells or parentals was unaffected
same,lowest dose safe and effective in reducing colorectal mucosal polyamine contents,"[19]; daily orally, 28 days",0.25 gm/m^2
same,lowest dose with evident effects on polyamine metabolism,"[19]; phase IIa, one month",0.2 Gm/M^2 /day
same,lowest dose decreasing putrescine content,"[19]; single daily oral doses, 4 wk, colorectal biopsies",0.25 gm/m^2
same,increase in apoptosis,[20],only a modest increase in apoptosis
same,spermidine contents,[21]; Barrett's lesions and normal squamous esophageal tissue,suppressed by systemic DFMO treatment and recovered to untreated control values when DFMO therapy was discontinued
same,spermidine and spermine levels,[21]; gastric tissue and small bowel,did not affect the levels of either of these two amines in gastric tissue and small bowel
same,percentage of apoptotic cells,[22],15%
same,cytotoxicity at 5000 µM,[23],60%
same,activity in chemotherapy trials,[24]; human cancer,not to be an active cytotoxic agent
same,activity in malignant brain tumors,[24]; malignant brain tumors,moderate activity
same,expected onset of hearing loss,[25],> 800 days
same,growth of MCA sarcoma,[26],reduces the growth rate of an MCA sarcoma but does not produce tumor regression
same,wound healing problems,[27],problems with wound healing have not been experienced
same,amount of biochemically active p21 ras in existing tumors,[9],reduced the amount of biochemically active p21 ras in existing tumors
same,tumors harboring Ki-ras mutations,[9]; reduced from 90%,36%
same,decrease in tumor putrescine levels,[28]; rat-tumor model,90%
same,peripheral platelet counts,[28],without suppressing peripheral platelet counts
same,chemoprevention / inhibition of tumor development in animal models,[29],potent inhibitor of carcinogenesis; also recorded: inhibits the development of many cancers including carcinogen-induced colon polyps and cancer; also recorded: inhibits colon carcinogenesis in carcinogen-treated rodents
same,IC50,"[30]; 24 h, read-out: concentration at 50% cell survival",500 µM
same,minimal effective concentration,"[30]; 24 h, read-out: lowest concentration (selectively) toxic to cells with an activated Ki-ras",50 µM
same,viability at 5000 µM,"[30]; Caco-2, 24 h, read-out: cell survival, of controls",20 to 40%
same,inhibition at 5000 µM,"[30]; Caco-2, 24 h, read-out: reduction of colony-forming efficiency of the Ki-ras transfectants",40%
